Data taken from patent publication EP2722048B1, “Iron bisglycinate chelate for use in treating anaemia” (Laboratori Baldacci S.p.A., priority 2012, dated 2014).
“And” between values parts separate entries of the source, which are not always exact repeats. Equal entries are not always repeated.

How the values were obtained:
[1] = tested on: patients who had to undergo surgery and who suffered from slight sideropenic anaemia; conditions: t=0, before treatment, individual patients, 'Average' = mean
Description: An experimental study was conducted on patients who had to undergo surgery and who suffered from slight sideropenic anaemia.
The aim of the treatment with iron salts was to restore and/or increase the haemoglobin level before surgery in such a manner as to minimise morbidity and/or mortality after surgery.
5 patients were treated with 2 effervescent tablets (prepared as in example 1) per day of iron bisglycinate chelate for 30 days, equal to 28 mg of iron ion per day and 5 patients were treated with one tablet per day of iron sulphate equal to 105 mg of iron ion.
Heavy bleeding surgery took place 10 days after the start of treatment with the iron derivative, i.e. both with the iron bisglycinate chelate and with iron sulphate and the treatment with said iron derivative continued for the 20 days following surgery.

[2] = tested on: patients before the hip arthroplasty operation; assay: Test 2: treatment for 10 days after taking 350 ml blood before hip arthroplasty, haematic parameters; type: in vivo; conditions: administration of iron sulphate; data in the applicant's possession
[3] = different values of pH of the gastrointestinal tract; cited from earlier work
[4] = tested on: patients before the hip arthroplasty operation; assay: Test 2: treatment for 10 days after taking 350 ml blood before hip arthroplasty, haematic parameters; type: in vivo; conditions: individual patients, 'Average' row = mean
Description: For about 10 days, before the hip arthroplasty operation, blood is usually taken from the patients (350 ml) so as to have available, if necessary, a quantity of blood that is sufficient for an autologous transfusion.
10 days after the blood is removed, the haematic parameters of the various patients are assessed, the intervention is performed and then the treatment with iron bisglycinate chelate continues for another 30 days after surgery.

[5] = compared with mineral salts, for example iron sulphate; cited from earlier work
[6] = tested on: reticulocytes of the anaemic patient; assay: Test 3: cytofluorometric analysis of reticulocytes in blood samples; type: in vivo; conditions: for RET_IMM: immature reticulocytes: limits 0.00-0.50; for RETH: reticulocytes with high RNA content, highly immature: limits 0.0-10.0; for RETM: reticulocytes with average RNA content, immature on average: limits 0.0-40.0; for IRF: Immature Reticulocyte Function: limits 0.000-999.000; for MRV: Mean Reticulocyte Volume: limits 0-9999; for CRC: Corrected Reticulocyte Count: limits 0.75-2.30; for MFI: Mean Fluorescence Intensity: limits 5.0-30.0; for RhC/C: reticulocyte haemoglobin content: limits 28.9-33.9; for RETL: reticulocytes without RNA, poorly immature (or mature): limits 65.0-97.0
Description: In order to be able to quantify the increase in reticulocytes, cytofluorometry analyses were conducted on samples of blood taken from the patient both before the treatment with iron bisglycinate chelate (Table 3) and after 20 days of treatment (Table 4).
The cytofluorometric analysis (fluorescence flow cytometry CFM) is conducted here as an assessment of the fluorescence obtained with the step of a laser beam of a sample of cells to be examined; in any case, further conventional techniques can be used for the purpose of the present invention.

[7] = t=20, after 20 days of treatment

## O=S(=O)([O-])[O-].[Fe+2] [Iron sulphate, reference compound]
[1]
  Iron: 110 µg/100ml and 85 µg/100ml
[1]; bisglycinate 28 mg iron ion/day, sulphate 105 mg iron ion/day
  Haemoglobin: 12.5 g/100ml and 11.6 g/100ml
[2]
  average reduction of the haemoglobin after taking 350 ml: 1.5 g of Hb

## NCC(=O)[O-].NCC(=O)[O-].[Fe+2] [Iron bisglycinate chelate]
[3]
  stability of the bond (hydrolysis): does not hydrolyse
[4]; t=0, start of treatment after taking 350 ml blood
  Haemoglobin: 12.5 g/100ml and 13.2 g/100ml (2×) and 12.9 g/100ml (2×) and 13.3 g/100ml and 12.7 g/100ml
[4]; t=0
  % Reticulocytes: 1.1% (3×) and 0.6% and 2.1% and 1.4% and 0.8%
  Ferritin: 97 ng/mL and 132 ng/mL and 315 ng/mL and 146 ng/mL and 43 ng/mL and 53 ng/mL and 67 ng/mL
  Sideraemia: 76 µg/100ml and 67 µg/100ml and 58 µg/100ml and 112 µg/100ml and 75 µg/100ml and 87 µg/100ml
[4]; t=10days, 2 tablets a day
  % Reticulocytes: 1.5% and 0.9% and 16% and 23% and 1.2% and 25% and 1.7%
  Ferritin: 103 ng/mL and 72 ng/mL and 237 ng/mL and 95 ng/mL and 25 ng/mL and 34 ng/mL and 67 ng/mL
  Haemoglobin: 11.8 g/100ml (2×) and 12.7 g/100ml and 12.2 g/100ml and 12.8 g/100ml and 12.9 g/100ml and 12.1 g/100ml
  Sideraemia: 58 µg/100ml and 120 µg/100ml and 80 µg/100ml and 62 µg/100ml and 65 µg/100ml and 84 µg/100ml and 69 µg/100ml
[5]
  bioavailability: greater bioavailabilty than mineral salts
[6]; after 20 days of treatment versus before the treatment
  increase in the percentage of immature reticulocytes (RET_IMM): 75%
[6]; t=0, before treatment
  RET_IMM: immature reticulocytes: 0.08%
  RETH: reticulocytes with high RNA content, highly immature: 1.8%
  RETM: reticulocytes with average RNA content, immature on average: 9.8%
  IRF: Immature Reticulocyte Function: 0.156
  MRV: Mean Reticulocyte Volume: 86 µm^3
  CRC: Corrected Reticulocyte Count: 1.56%
  MFI: Mean Fluorescence Intensity: 15.1%
  RhC/C: reticulocyte haemoglobin content: 28.1 pg
  RETL: reticulocytes without RNA, poorly immature (or mature): 88.6%
[6]; [7]
  RET_IMM: immature reticulocytes: 0.14%
  RETH: reticulocytes with high RNA content, highly immature: 15.4%
  RETM: reticulocytes with average RNA content, immature on average: 32.3%
  IRF: Immature Reticulocyte Function: 0.534
  MRV: Mean Reticulocyte Volume: 100 µm^3
  CRC: Corrected Reticulocyte Count: 1.87%
  MFI: Mean Fluorescence Intensity: 29.8%
  RhC/C: reticulocyte haemoglobin content: 29.4 pg
  RETL: reticulocytes without RNA, poorly immature (or mature): 52.3%
